The results in this text go back to PubChem BioAssay AID248 (DTP/NCI, 2004).

Values joined by “and” are separate entries in the source; they are usually repeats but may differ in a detail not shown here. Identical values can stand only once. Inconclusive results and toxic doses are left out.

In this test the test system is L1210 leukemia ip in BDF1 mice, survival T/C. The test is described as follows: NCI In Vivo Anticancer Drug Screen. Data for tumor model L1210 Leukemia (intraperitoneal) in B6D2F1 (BDF1) mice. Particulars: endpoint: mean survival time, higher = longer survival. In short, it runs like this: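 Each compound was tested against a transplantable tumor grown in mice. The endpoint was survival, with treated animals benchmarked against vehicle controls as a simple ratio.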

[1] abbreviates: dose: 100.0 mg/kg/injection, schedule: Q04DX003 (ip), vehicle: Klucel (hydroxypropylcellulose) (HPC).
Setting [2] is: dose: 200.0 mg/kg/injection, schedule: Q04DX003 (ip), vehicle: Klucel (hydroxypropylcellulose) (HPC).
The mark [3] stands for this setting: dose: 400.0 mg/kg/injection, schedule: Q04DX003 (ip), vehicle: Klucel (hydroxypropylcellulose) (HPC).
Where [4] appears, read: dose: 100.0 mg/kg/injection, schedule: Q01DX001 (ip), vehicle: saline.
Setting [5] is: dose: 200.0 mg/kg/injection, schedule: Q01DX001 (ip), vehicle: saline.
Where [6] appears, read: dose: 400.0 mg/kg/injection, schedule: Q01DX001 (ip), vehicle: saline.
Where [7] appears, read: dose: 12.5 mg/kg/injection, schedule: Q01DX009 (ip), vehicle: saline with Tween-80.
Where [8] appears, read: dose: 12.5 mg/kg/injection, schedule: Q04DX003 (ip), vehicle: saline.
Setting [9] is: dose: 25.0 mg/kg/injection, schedule: Q04DX003 (ip), vehicle: saline.
[10] abbreviates: dose: 50.0 mg/kg/injection, schedule: Q04DX003 (ip), vehicle: saline.
[11] abbreviates: dose: 100.0 mg/kg/injection, schedule: Q04DX003 (ip), vehicle: saline.

Turning to `Cc1c2ccccc2cc2cc[n+]3ccccc3c12`, the T/C (dose: 1.0 mg/kg/injection, schedule: Q01DX015 (ip), vehicle: carboxymethylcellulose (CMC)) is 102 % of control; the T/C (dose: 2.0 mg/kg/injection, schedule: Q01DX015 (ip), vehicle: carboxymethylcellulose (CMC)) was 104 % of control; the T/C (dose: 4.0 mg/kg/injection, schedule: Q01DX015 (ip), vehicle: carboxymethylcellulose (CMC)) is 98 % of control; the T/C (dose: 5.0 mg/kg/injection, schedule: Q01DX001 (ip), vehicle: carboxymethylcellulose (CMC)) is 101 % of control; the T/C (dose: 8.0 mg/kg/injection, schedule: Q01DX015 (ip), vehicle: carboxymethylcellulose (CMC)) was 102 % of control and 119 % of control; the T/C (dose: 10.0 mg/kg/injection, schedule: Q01DX001 (ip), vehicle: carboxymethylcellulose (CMC)) was 101 % of control. Moreover, the T/C is 111 % of control (dose: 16.0 mg/kg/injection, schedule: Q01DX015 (ip), vehicle: carboxymethylcellulose (CMC)); 110 % of control (dose: 20.0 mg/kg/injection, schedule: Q01DX001 (ip), vehicle: carboxymethylcellulose (CMC)); 110 % of control (dose: 20.0 mg/kg/injection, schedule: Q04DX003 (ip), vehicle: Klucel (hydroxypropylcellulose) (HPC)); 117 % of control (dose: 40.0 mg/kg/injection, schedule: Q01DX001 (ip), vehicle: carboxymethylcellulose (CMC)); 114 % of control (dose: 40.0 mg/kg/injection, schedule: Q04DX003 (ip), vehicle: Klucel (hydroxypropylcellulose) (HPC)).

Take `c1ccc(C(c2ccccc2)c2ccncc2)cc1`: the T/C runs as follows: (dose: 100.0 mg/kg/injection, schedule: Q04DX002 (ip), vehicle: saline with Tween-80) 87 % of control; (dose: 200.0 mg/kg/injection, schedule: Q04DX002 (ip), vehicle: saline with Tween-80) 90 % of control; (dose: 400.0 mg/kg/injection, schedule: Q04DX002 (ip), vehicle: saline with Tween-80) 87 % of control.

Regarding `O=C(O)CCCCCCC1CCCC1=O` (configuration not stated), the T/C is, setting by setting: (dose: 100.0 mg/kg/injection, schedule: Q01DX009 (ip), vehicle: saline sonified) 97 % of control; (dose: 200.0 mg/kg/injection, schedule: Q01DX009 (ip), vehicle: saline sonified) 91 % of control; (dose: 400.0 mg/kg/injection, schedule: Q01DX009 (ip), vehicle: saline sonified) 97 % of control.

Turning to `Cc1ccc(S(=O)(=O)Oc2ccc([N+](=O)[O-])cc2)cc1`, the T/C (dose: 100.0 mg/kg/injection, schedule: Q01DX009 (ip), vehicle: Klucel (hydroxypropylcellulose) (HPC)) was 103 % of control; the T/C under setting [1] is 97 % of control; the T/C (dose: 200.0 mg/kg/injection, schedule: Q01DX009 (ip), vehicle: Klucel (hydroxypropylcellulose) (HPC)) is 97 % of control; the T/C under setting [2] was 94 % of control; the T/C (dose: 400.0 mg/kg/injection, schedule: Q01DX009 (ip), vehicle: Klucel (hydroxypropylcellulose) (HPC)) was 102 % of control; the T/C under setting [3] is 100 % of control.

In the case of `CC(OC(=O)c1ccccc1)C(N)=S` (configuration not stated), the T/C by setting is: under setting [4], 102 % of control; (dose: 100.0 mg/kg/injection, schedule: Q01DX009 (ip), vehicle: acetone) 93 % of control; (dose: 100.0 mg/kg/injection, schedule: Q04DX003 (ip), vehicle: acetone) 101 % of control; under setting [5], 93 % of control; (dose: 200.0 mg/kg/injection, schedule: Q01DX009 (ip), vehicle: acetone) 95 % of control; (dose: 200.0 mg/kg/injection, schedule: Q04DX003 (ip), vehicle: acetone) 102 % of control. Further, the T/C is 103 % of control under setting [6]; 96 % of control (dose: 400.0 mg/kg/injection, schedule: Q01DX009 (ip), vehicle: acetone); 102 % of control (dose: 400.0 mg/kg/injection, schedule: Q04DX003 (ip), vehicle: acetone).

Regarding `CC(C)N(C(=O)Nc1cc([N+](=O)[O-])ccc1Cl)c1ccccc1`, the T/C runs as follows: (dose: 12.5 mg/kg/injection, schedule: Q01DX009 (ip), vehicle: Klucel (hydroxypropylcellulose) (HPC)) 89 % of control; (dose: 25.0 mg/kg/injection, schedule: Q01DX009 (ip), vehicle: Klucel (hydroxypropylcellulose) (HPC)) 96 % of control; (dose: 50.0 mg/kg/injection, schedule: Q01DX009 (ip), vehicle: Klucel (hydroxypropylcellulose) (HPC)) 98 % of control.

Turning to `Nc1nc2nc(CC(=O)C(=O)O)c(=O)[nH]c2c(=O)[nH]1`, the T/C by setting is: (dose: 3.12 mg/kg/injection, schedule: Q01DX009 (ip), vehicle: saline with Tween-80) 97 % of control; (dose: 6.25 mg/kg/injection, schedule: Q01DX009 (ip), vehicle: saline with Tween-80) 101 % of control; under setting [7], 103 % of control; under setting [8], 105 % of control; under setting [9], 111 % of control; (dose: 50.0 mg/kg/injection, schedule: Q01DX009 (ip), vehicle: saline) 97 % of control. The T/C is, setting by setting: under setting [10], 104 % of control; under setting [11], 106 % of control.

Take `CNC(=O)Cc1ccc2cc(OC)c(OC)cc2c1`: the T/C is 95 % of control (dose: 100.0 mg/kg/injection, schedule: Q04DX003 (ip), vehicle: saline with Tween-80); 101 % of control (dose: 200.0 mg/kg/injection, schedule: Q04DX003 (ip), vehicle: saline with Tween-80); 91 % of control (dose: 400.0 mg/kg/injection, schedule: Q04DX003 (ip), vehicle: saline with Tween-80).

Regarding `c1ccc(CNCCNCc2ccccn2)nc1`, the T/C was 106 % of control (dose: 1.25 mg/kg/injection, schedule: Q04DX002 (ip), vehicle: saline); 113 % of control (dose: 2.5 mg/kg/injection, schedule: Q04DX002 (ip), vehicle: saline); 106 % of control (dose: 5.0 mg/kg/injection, schedule: Q04DX002 (ip), vehicle: saline); 102 % of control (dose: 10.0 mg/kg/injection, schedule: Q04DX002 (ip), vehicle: saline).

Take `CCCCCCNC(C)(C)[P+](=O)O`: the T/C under setting [11] is 105 % of control; the T/C (dose: 200.0 mg/kg/injection, schedule: Q04DX003 (ip), vehicle: saline) is 108 % of control; the T/C (dose: 400.0 mg/kg/injection, schedule: Q04DX003 (ip), vehicle: saline) was 102 % of control.

Take `CCCC1(CCC)c2ccccc2C(=O)c2ccccc21`: the T/C is 105 % of control (dose: 100.0 mg/kg/injection, schedule: Q01DX001 (ip), vehicle: Klucel (hydroxypropylcellulose) (HPC)); 100 % of control under setting [1]; 96 % of control (dose: 200.0 mg/kg/injection, schedule: Q01DX001 (ip), vehicle: Klucel (hydroxypropylcellulose) (HPC)); 96 % of control under setting [2]; 105 % of control (dose: 400.0 mg/kg/injection, schedule: Q01DX001 (ip), vehicle: Klucel (hydroxypropylcellulose) (HPC)); 95 % of control under setting [3].

As to `NC(N)(C(F)(F)F)C(F)(F)F`, the T/C is 101 % of control under setting [4], 102 % of control under setting [5] and 98 % of control under setting [6].

Regarding `Cc1cccc2c1CCC(OC(=O)c1cc([N+](=O)[O-])cc([N+](=O)[O-])c1)C2` (configuration not stated), the T/C is 86 % of control (dose: 100.0 mg/kg/injection, schedule: Q01DX009 (ip), vehicle: saline with Tween-80); 169 % of control (dose: 200.0 mg/kg/injection, schedule: Q01DX009 (ip), vehicle: saline with Tween-80); 95 % of control (dose: 400.0 mg/kg/injection, schedule: Q01DX009 (ip), vehicle: saline with Tween-80).

With `CN(C)c1ccc(/C=N\NC(=S)Nc2ccccc2)c(Cl)c1`, the T/C under setting [7] is 89 % of control; the T/C under setting [8] was 98 % of control; the T/C (dose: 25.0 mg/kg/injection, schedule: Q01DX009 (ip), vehicle: saline with Tween-80) is 91 % of control; the T/C under setting [9] was 102 % of control; the T/C (dose: 50.0 mg/kg/injection, schedule: Q01DX009 (ip), vehicle: saline with Tween-80) is 97 % of control; the T/C under setting [10] was 95 % of control. Moreover, the T/C was 101 % of control (dose: 75.0 mg/kg/injection, schedule: Q01DX009 (ip), vehicle: saline with Tween-80); 87 % of control under setting [4]; 98 % of control (dose: 115.0 mg/kg/injection, schedule: Q01DX009 (ip), vehicle: saline with Tween-80); 92 % of control (dose: 170.0 mg/kg/injection, schedule: Q01DX009 (ip), vehicle: saline with Tween-80); 95 % of control under setting [5]; 92 % of control under setting [6].
